ChEMBL document CHEMBL3108748, “Telomere maintenance as a target for drug discovery” (J Med Chem, 2014)
pIC50: −log10 of the molar value.

Legend:
[1] = target: T1, Telomerase reverse transcriptase (Homo sapiens, UniProt O14746); assay: Inhibition of human telomerase activity in human Jurkat cells by TRAP assay; assay type: cell-based
[2] = target: T1, Telomerase reverse transcriptase; assay: Inhibition of human telomerase activity by TRAP assay
[3] = target: Telomerase reverse transcriptase (Rattus norvegicus, UniProt Q673L6); assay: Inhibition of rat telomerase by TRAP assay
[4] = target: T1, Telomerase reverse transcriptase; assay: Inhibition of human telomerase activity after 8 mins by SYBR Green staining-based TRAP assay

T1 sequence (O14746 whole entry): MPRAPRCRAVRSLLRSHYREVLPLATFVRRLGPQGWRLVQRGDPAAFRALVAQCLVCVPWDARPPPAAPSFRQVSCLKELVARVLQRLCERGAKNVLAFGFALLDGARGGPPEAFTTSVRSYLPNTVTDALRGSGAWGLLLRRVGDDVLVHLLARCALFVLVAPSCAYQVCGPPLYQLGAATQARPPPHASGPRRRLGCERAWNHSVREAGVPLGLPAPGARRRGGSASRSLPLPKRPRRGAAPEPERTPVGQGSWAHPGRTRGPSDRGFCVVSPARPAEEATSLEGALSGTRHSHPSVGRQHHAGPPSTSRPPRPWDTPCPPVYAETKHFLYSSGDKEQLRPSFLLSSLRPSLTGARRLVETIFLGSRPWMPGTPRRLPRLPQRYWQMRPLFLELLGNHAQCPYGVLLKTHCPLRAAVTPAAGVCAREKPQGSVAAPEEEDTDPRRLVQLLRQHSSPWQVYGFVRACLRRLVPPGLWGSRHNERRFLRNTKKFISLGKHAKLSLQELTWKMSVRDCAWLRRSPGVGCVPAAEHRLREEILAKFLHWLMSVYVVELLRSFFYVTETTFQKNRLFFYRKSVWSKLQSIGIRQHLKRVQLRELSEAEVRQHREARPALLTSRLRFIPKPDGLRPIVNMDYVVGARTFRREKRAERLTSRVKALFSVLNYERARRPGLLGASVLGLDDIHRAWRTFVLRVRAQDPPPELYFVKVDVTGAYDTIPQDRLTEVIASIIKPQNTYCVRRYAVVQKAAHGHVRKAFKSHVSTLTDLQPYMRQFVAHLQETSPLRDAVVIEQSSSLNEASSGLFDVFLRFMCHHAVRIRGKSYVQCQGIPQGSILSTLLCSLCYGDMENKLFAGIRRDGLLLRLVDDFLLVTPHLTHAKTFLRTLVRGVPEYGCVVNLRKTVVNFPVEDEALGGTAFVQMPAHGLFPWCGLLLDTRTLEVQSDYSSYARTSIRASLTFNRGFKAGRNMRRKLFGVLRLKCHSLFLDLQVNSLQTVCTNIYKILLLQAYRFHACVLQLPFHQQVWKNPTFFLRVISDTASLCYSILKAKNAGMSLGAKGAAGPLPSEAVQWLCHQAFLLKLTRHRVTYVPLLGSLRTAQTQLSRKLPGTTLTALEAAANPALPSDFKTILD
Sequence of Telomerase reverse transcriptase (Rattus norvegicus, UniProt Q673L6) (Q673L6 whole entry): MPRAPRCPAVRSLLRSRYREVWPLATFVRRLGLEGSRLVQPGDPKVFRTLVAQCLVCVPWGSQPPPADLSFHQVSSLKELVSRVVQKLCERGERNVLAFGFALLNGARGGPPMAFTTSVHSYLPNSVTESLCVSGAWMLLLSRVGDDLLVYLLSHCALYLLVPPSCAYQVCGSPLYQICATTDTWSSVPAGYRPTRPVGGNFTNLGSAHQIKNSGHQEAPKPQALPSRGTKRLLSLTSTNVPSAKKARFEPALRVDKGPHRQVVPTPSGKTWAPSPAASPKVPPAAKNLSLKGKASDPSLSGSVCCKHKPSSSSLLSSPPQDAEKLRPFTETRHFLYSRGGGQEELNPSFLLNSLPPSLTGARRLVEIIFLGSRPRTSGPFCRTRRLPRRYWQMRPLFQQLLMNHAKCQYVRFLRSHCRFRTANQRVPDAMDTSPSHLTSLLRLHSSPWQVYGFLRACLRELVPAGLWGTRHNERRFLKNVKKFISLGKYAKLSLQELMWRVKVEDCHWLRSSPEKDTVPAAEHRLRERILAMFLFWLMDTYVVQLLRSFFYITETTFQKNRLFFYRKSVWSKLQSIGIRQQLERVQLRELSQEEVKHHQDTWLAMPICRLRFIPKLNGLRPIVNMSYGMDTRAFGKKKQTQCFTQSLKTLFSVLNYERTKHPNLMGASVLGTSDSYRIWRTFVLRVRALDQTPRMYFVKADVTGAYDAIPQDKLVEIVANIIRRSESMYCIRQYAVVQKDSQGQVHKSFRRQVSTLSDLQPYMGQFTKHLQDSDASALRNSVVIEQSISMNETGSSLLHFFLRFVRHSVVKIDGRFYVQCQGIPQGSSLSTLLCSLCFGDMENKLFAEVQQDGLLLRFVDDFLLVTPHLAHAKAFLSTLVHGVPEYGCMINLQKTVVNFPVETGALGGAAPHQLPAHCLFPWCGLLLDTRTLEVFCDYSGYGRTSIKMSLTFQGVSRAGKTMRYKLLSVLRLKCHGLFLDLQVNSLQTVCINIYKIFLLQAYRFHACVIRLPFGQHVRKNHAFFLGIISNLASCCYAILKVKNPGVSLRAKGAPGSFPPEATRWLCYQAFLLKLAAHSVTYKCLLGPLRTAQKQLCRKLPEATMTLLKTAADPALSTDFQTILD

SMILES: COc1ccc2c(c1)CC[C@@H]1[C@@H]2CC[C@]2(C)[C@@H](NCCCCCCN3C(=O)C=CC3=O)CC[C@@H]12
- pIC50 [1]: 6.70

SMILES: N=C(N)Nc1nc(-c2cc(Cl)sc2Cl)cs1
- pIC50 [2]: 6.00

SMILES: O=c1ccsn1-c1cccc(C(F)(F)F)c1
- pIC50 [3]: 6.00

SMILES: O=[N+]([O-])/C=C/c1cccc(Oc2cc(Cl)cc(Cl)c2)c1
- pIC50 [4]: 6.40
